Reference: paper PMC9230431, “Application of In Silico Filtering and Isothermal Titration Calorimetry for the Discovery of Small Molecule Inhibitors of MDM2” (Pharmaceuticals, 2022)

target: T1, MDM2 (Homo sapiens, UniProt Q00987); assay: ITC, MDM2 titrated into compound, single-site fit; type: binding; settings: not given
T1 construct: His tag-GB1-TEV site fusion expressed in E. coli BL21; His-GB1 removed by TEV cleavage
Description: ITC, MDM2 titrated into compound, single-site fit on MDM2

T1 sequence (Q00987 5-125): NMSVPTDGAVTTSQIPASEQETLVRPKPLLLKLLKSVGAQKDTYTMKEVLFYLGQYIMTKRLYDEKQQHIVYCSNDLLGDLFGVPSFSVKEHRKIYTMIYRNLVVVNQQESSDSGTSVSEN

Row | Kd | Compound
1 | 2.85 µM | Cc1cccc(C)c1NC(=O)C(c1ccc(Cl)cc1)N1C(=O)CC1c1ccc(OC(C)C)cc1 (stereo not shown) [M1]
2 | 0.979 µM | O=S(=O)(NC(c1c[nH]c2cccc(F)c12)C(Cl)(Cl)Cl)c1ccc(Cl)cc1 (stereo not shown) [M2-7]
3 | 0.578 µM | O=S(=O)(NC(c1c[nH]c2cccc(Cl)c12)C(Cl)(Cl)Cl)c1ccc(Cl)cc1 (stereo not shown) [M2-10]
4 | 0.704 µM | O=S(=O)(NC(c1c[nH]c2cc(Cl)ccc12)C(Cl)(Cl)Cl)c1ccc(Cl)cc1 (stereo not shown) [M2-11]
5 | 1.33 µM | Cc1ccc(S(=O)(=O)NC(c2c[nH]c3cc(F)ccc23)C(Cl)(Cl)Cl)cc1 (stereo not shown) [M2-18]

Continued, compound first:

Row | Compound | Kd
6 | Cc1cccc(C)c1NC(=O)C(c1ccc(Cl)cc1)N1C(=O)CC1c1cccc(C(F)(F)F)c1 (stereo not shown) [M1-7] | 33.5 µM
7 | Cc1cccc(C)c1NC(=O)C(c1ccc(Cl)cc1)N1C(=O)CC1c1ccsc1 (stereo not shown) [M1-10] | 19.5 µM
8 | Cc1ccc(C2CC(=O)N2C(C(=O)Nc2c(C)cccc2C)c2ccc(Cl)cc2)o1 (stereo not shown) [M1-11] | 13.1 µM
9 | O=S(=O)(NC(c1c[nH]c2ccc(F)cc12)C(Cl)(Cl)Cl)c1ccc(Cl)cc1 (stereo not shown) [M2-8] | 1.58 µM
10 | Cc1ccc2c(C(NS(=O)(=O)c3ccc(Cl)cc3)C(Cl)(Cl)Cl)c[nH]c2c1 (stereo not shown) [M2-12] | 0.844 µM
11 | O=S(=O)(NC(c1c[nH]c2cc(F)cc(F)c12)C(Cl)(Cl)Cl)c1ccc(Cl)cc1 (stereo not shown) [M2-13] | 0.489 µM
12 | O=S(=O)(NC(c1c[nH]c2cc(F)ccc12)C(Cl)(Cl)Cl)c1ccc(Cl)cc1 (stereo not shown) [M2-14] | 1.22 µM
13 | COc1cc(Cl)ccc1S(=O)(=O)NC(c1c[nH]c2ccccc12)C(Cl)(Cl)Cl (stereo not shown) [M2-15] | 3.16 µM
14 | O=S(=O)(NC(c1c[nH]c2ccccc12)C(Cl)(Cl)Cl)c1ccc(Cl)cc1 (stereo not shown) [M2] | 2.08 µM
15 | COc1ccccc1-c1nnc(SC2CCCCC2=O)n1-c1ccc(Cl)cc1 (stereo not shown) [M3] | 16.6 µM

same assay, conditions: 50 mM sodium phosphate pH 6.8, 150 mM NaCl, 5% DMSO, 1 mM TCEP

Row | Kd | Compound
16 | 49.7 µM | Cc1[nH]c2ccccc2c1C(NS(=O)(=O)c1ccc(Cl)cc1)C(Cl)(Cl)Cl (stereo not shown) [M2-3]
